Converted amounts (≈) assume the structure as drawn.

The assay has as its system Phytophthora infestans. The experiment in a line: Antifungal activity against phenylamide-resistant Phytophthora infestans 7-1 assessed as inhibition of mycelial growth after 5 to 7 days. It counts as functional, organism-based, 07-Jan. The note with it: for IC50: Phytophthora infestans, 07-Jan, read-out: I50.

For orientation: MIC means the smallest concentration in the dilution series that meets the test's criterion for growth inhibition. For `COCC(=O)N(c1c(C)cccc1C)C(C)C(=O)OC` (centres undefined) [METALAXYL], the minimum inhibitory concentration (MIC) is >10 µg/mL and the IC50 is > 10 µg/mL.
Taken in the same sequence, the figures for `CC(C)OC(=O)N[C@H](C(=O)N[C@H](C)c1nc2ccc(F)cc2s1)C(C)C` [BENTHIAVALICARB-ISOPROPYL] were 0.1 µg/mL (≈ 0.262 µM) and 0.04 µg/mL (≈ 0.105 µM).

Source of the values: ChEMBL document CHEMBL3046782, “Fungicidial Activity of Benthiavalicarb-isopropyl against Phytophthora infestans and Its Controlling Activity against Late Blight Diseases” (J Pestic Sci, 2005).
